Experimental data taken from EPA's ToxValDB 9.5 (doi:10.2903/j.efsa.2009.296r).
Converted amounts (≈) assume the structure as drawn.

What was measured:
[1] = reproductive; oral; feed; reproduction
Anas platyrhynchos = conditions: oral
Apis mellifera = conditions: acute, duration: 48 hours, mortality
Coturnix coturnix = conditions: oral
Daphnia magna = conditions: chronic/long-term; duration: 21 days
Mus musculus = conditions: acute; oral; mortality
Oncorhynchus mykiss = conditions: chronic/long-term; duration: 28 days
Oryctolagus sp. = conditions: developmental; development
Salmo trutta ssp. fario = conditions: acute; duration: 96 hours; mortality

SMILES: O=C1C2CC=CCC2C(=O)N1SC(Cl)(Cl)Cl (stereo not drawn) [Captan]
- NOAEL [1]: 100 mg/kg-day
- LD50 (Anas platyrhynchos; acute, unspecified, mortality): > 2000 mg/kg
- NOEC (Anas platyrhynchos; reproductive, unspecified, no effects): 74.4 mg/kg-day
- LC50 (Anas platyrhynchos; short-term, feed, mortality): > 1040 mg/kg-day
- LC50 (Apis mellifera; dermal): > 200 µg/piece
- LD50 (Apis mellifera; oral, unspecified): > 100 µg/piece
- LC50 (Coturnix coturnix; acute, diet, mortality): > 800 mg/kg-day
- LD50 (Coturnix coturnix; acute, mortality): > 2000 mg/kg
- NOEC (Coturnix coturnix; reproduction developmental, no effects): 83.2 mg/kg-day
- NOEC (Daphnia magna): 0.56 mg/L
- LD50 (Mus musculus): > 2000 mg/kg
- NOEC (Oncorhynchus mykiss): 0.199 mg/L
- NOAEL (Oryctolagus sp.): 30 mg/kg-day
- LD50 (Rattus norvegicus; acute, oral, mortality): > 2000 mg/kg
- NOAEL (Rattus norvegicus; developmental, development): 10 mg/kg-day
- LC50 (Salmo trutta ssp. fario): 0.098 µg/mL (≈ 0.326 µM)
- LC50 (Tagia sp.; acute, duration: 14 days, mortality): > 519 mg/kg
- NOEC (Tagia sp.; chronic/long-term, duration: 8 weeks, reproduction): 11.6 mg/kg
